row,Structure (SMILES),melting point
1,COc1cc(OC)c(/C=C/S(=O)(=O)Cc2cnc(OC)c([N+](=O)[O-])c2)c(OC)c1,183 to 186 °C
2,CCCCCCCCCCOCCC(=O)O,41.5 to 43.9 °C
3,Cc1cc(N)c2nccc(Cl)c2c1,115 to 116 °C
4,O=C(CSCc1ccccc1)CS(=O)(=O)C(c1ccc(Cl)cc1)c1ccc(Cl)cc1,108 to 110 °C
5,Cn1cc(-c2cnccn2)cc(Cl)c1=O,197 to 198 °C
6,Cc1c(C#N)sc2nc(-c3ccncc3)nc(N(C)CCO)c12,194 to 195 °C
7,Cc1nn(CCc2ccccc2)cc1C(=O)Nc1ccc(N2CCC(N3CCOCC3)CC2)c(C#N)c1,188 °C
8,CC(C)(C)c1cc(C=Cc2n[nH]c(=O)[nH]2)cc(C(C)(C)C)c1O,280 to 284 °C
9,CCc1nc(NC(=S)NCCc2ccccc2Oc2ccccc2)cs1,168 °C
10,CCOC(=O)c1cc(NS(=O)(=O)c2ccc(Cl)nc2)ccc1Oc1cncc(Cl)c1,166 to 168 °C
11,O=C1c2ccc(Cl)cc2C(O)N1c1ccc2ccc(Cl)nc2n1 (configuration not stated),220 to 230 °C
12,NC(=O)COc1cccc(CCNS(=O)(=O)c2ccc(Cl)cc2)c1,113 °C
13,CS(=O)(=O)Oc1cc(CC(=O)O)on1,101 to 103 °C
14,CC(C)(C)c1cc(NC(=O)c2cncc3cc(Oc4cc(N)ncn4)ccc23)n(-c2ccc(F)cc2)n1,124 to 126 °C
15,CN(CCN1CCC(=C(c2ccc(F)cc2)c2ccc(F)cc2)CC1)c1nc(=O)cc[nH]1,164 to 165 °C
16,O=C1CCCC(c2ccc(Cl)cc2)O1 (configuration not stated),110 to 111 °C
17,CCCc1nc(NCc2ccco2)nc(Nc2cccc(C(F)(F)F)c2)n1,110 to 112 °C
18,CCOC(=O)C1=C(C)NC(c2cscn2)=NC1c1ccc(O)cc1 (configuration not stated),213 to 216 °C
19,CN(C)C(=O)Nc1nsnc1-c1c(Cl)cccc1Cl,100 to 103 °C
20,CCOC(=O)Cn1c(C(=O)OCC)cc(=O)c2cc(O)c(=O)ccc21,186 to 188 °C
21,O=C(O)C=CCCCc1cccc2cncn12,142 to 144 °C
22,O=C1NCC1NC(=O)C(C(=O)OCc1ccccc1)c1ccccc1 (configuration not stated),164 to 166 °C
23,O=C1CCC(c2ccc(Cl)cc2)CN1CNC(=S)NCN1CC(c2ccc(Cl)cc2)CCC1=O (configuration not stated),212 to 213 °C
24,CN1CCc2c(c3ccccc3n2CCc2n[nH]c(=S)n2C)C1,216 to 219 °C
25,Cc1nnc(C(C)(C)C)c(=O)n1N,155 to 157 °C
26,O=CN(O)C(CS(=O)(=O)c1ccc(-c2ccc(C(F)(F)F)cc2)cc1)c1ccccn1 (configuration not stated),168 to 169 °C

row,Structure (SMILES),melting point
1,CC(C)(C)OC(=O)N[C@H]1CC[C@H](CCN2CCN(c3cccc4c3CCC4)CC2)CC1,115 to 118 °C
2,CCCn1c(=Nc2ccccc2)sc2ncccc2c1=O,94 to 95 °C
3,CNC(=C[N+](=O)[O-])NCCSCc1ccsn1,118 to 120 °C
4,COc1c(C)cc([N+](=O)[O-])cc1C(=S)N(C)C,138 to 139 °C
5,NC(=O)c1cc(Cl)c(Cl)c(Cl)n1,169 to 170 °C
6,CC(C)SCS(=O)C(C)C (configuration not stated),39 to 40 °C
7,CC(=O)Oc1ccc(C(=O)Nc2ccc(Cl)c(NC(=O)c3ccc(C#N)cc3)c2)cc1,195 to 196 °C
8,CCc1nn2ccc3c(c2c1CC#N)CCO3,179 to 180 °C
9,CC(C)c1cc(-c2ccc3c(c2)OCO3)nc(Cl)c1C#N,171 to 173 °C
10,Cc1ncn(-c2cc(F)ccc2CNC(=O)c2nc3n(c(=O)c2OCc2ccccc2)CCOC3(C)C)n1,203 °C
11,COc1ccc(C(=O)O)cc1NC(=O)C(CSC(C)=O)Cc1ccccc1 (configuration not stated),172 to 175 °C
12,CN1CCCC(O)(c2cccc3[nH]ccc23)C1 (configuration not stated),250 °C
13,COc1cc(C)cc(-c2n[nH]cc2-c2cc(NC[C@H](C)O)nc(Cl)n2)c1,256 °C
14,Cc1ccc(C(=O)Nc2ccc3ccc(Cl)nc3n2)nn1,258 °C
15,CC1=N/C(=C\c2c[nH]c3ncccc23)C(=O)N1C(C)C,207 °C
16,Cc1ccccc1Sc1c(N)cc(C(=O)O)cc1S(N)(=O)=O,277 °C
17,CCCCC(=Nc1sccc1C(=O)NCCC)OC,68 to 70 °C
18,Cc1csc(N)c1C(=O)c1ccc(Cl)cc1,148 to 150 °C
19,C=C(C)c1ccc(OCCO)cc1,78 to 80 °C
20,Clc1nccnc1Oc1ccc(Oc2ccccc2)cc1,53 to 55 °C
21,Oc1ccccc1Cc1cccc2[nH]ccc12,139 °C
22,CC(C)N1Cc2cncn2C(c2ccc(C#N)cc2)C1=O (configuration not stated),122 to 124 °C
23,CCOc1ccc2c(c1)C(=O)N(c1ccc3c(ccn3C)c1)C2,185 to 190 °C
24,O=C(O)COc1ccc(C(=O)CN2CCN(c3ccncc3)CC2)cc1,294 to 296 °C
25,Cc1oc(-c2cccs2)nc1COc1ccc(CON=C(CCCCCCC(=O)O)c2ccccc2)cc1,106 to 108 °C
26,CC1(C)CC(N(CCCCCCN(CCC(=O)O)C2CC(C)(C)NC(C)(C)C2)CCC(=O)O)CC(C)(C)N1,> 250 °C

row,Structure (SMILES),melting point
1,COc1ccc(CCN2COc3c(cccc3OC)C2)cc1,69 to 70 °C
2,Clc1ccc(C(=NN=Cc2cccnc2)SSC(=NN=Cc2cccnc2)c2ccc(Cl)cc2)cc1,143 to 145 °C
3,CCC(CCCCCCCCC(C)(C)CO)N1C(=O)c2cccc([N+](=O)[O-])c2C1=O (configuration not stated),66 to 68 °C
4,O=C(c1cccs1)C1CCN(CCc2ccccc2)CC1,77 to 79 °C
5,CCc1c(C)nc(SCc2cc(C)ccn2)[nH]c1=O,130 to 132 °C
6,CCCc1cc(Cl)c(O)c2c(C)c(Cc3ccc(OC)cc3)oc12,99 to 100 °C
7,ClCc1ccc(OCc2ccccc2)cc1,74 to 76 °C
8,CC(=O)C(=[N+]=[N-])C(=O)CCc1ccc(S(=O)(=O)Cl)cc1,58 to 59.5 °C
9,COc1ccc(C2=NCc3nncn3-c3ccc(Cl)cc32)cc1,216 to 217 °C
10,CO/C(=C\C=C\c1cc2cc(Br)ccc2[nH]1)C(=O)O,208 to 210 °C
11,CS(=O)(=O)NCCC(c1cc(F)ccc1F)S(=O)(=O)c1ccc(Cl)cc1 (configuration not stated),131 to 134 °C
12,COc1ccc2c(c1)C13CCN(CC4CC4)C(C2)C1(Cc1ccccc1)CCC1(C3)OCCO1 (configuration not stated),165 to 167 °C
13,CCn1nc(C)c2c1C(=O)Nc1ccccc1N2C(=O)CCl,208 to 210 °C
14,NC(=O)CN1C(=O)[C@@H](NC(=O)[C@@H]2CCC(=O)C2)[C@H](c2ccccc2)Sc2ccccc21,135 to 150 °C
15,CC(C)(C)c1ccc(Cn2c3c(c4cc(OCc5ccccc5)ccc42)C(=O)C(=O)OC3)cc1,233 to 234 °C
16,O=C1CCC(=O)C(c2cccc(Cl)c2)N1 (configuration not stated),144 to 147 °C
17,CC(C)(C)OC(=O)Cc1nn(Cc2nc3cc(C(F)(F)F)ccc3s2)c(=O)c2cccnc12,121 to 122 °C
18,COc1cc(CN2CCCC2)ccc1OCC(=O)Nc1ccc(-c2ccc(Cl)cc2)cc1,89 to 91 °C
19,COc1ccc(C(=O)Nc2ccccc2)cc1NC(=S)Nc1cccc(C(=O)O)c1,196 to 197 °C
20,COC(=O)CCNC(=O)C1CCCN1C(=O)OCc1ccccc1 (configuration not stated),55 °C
21,CCOc1ccc(Nc2nc(Nc3ccc4c(c3)OCCO4)ncc2F)cc1,164 to 167 °C
22,Cc1c(OCC(F)(F)F)ccnc1CS(=O)c1nc2ccccc2n1S(=O)(=O)c1ccc(OCC(=O)Nc2ccccn2)cc1 (configuration not stated),78 to 81 °C
23,COc1ccc(Cc2nnc(N[C@H]3CO[C@H](C(C)C)OC3)c3ccccc23)cn1,186 to 187 °C
24,NC(=O)c1ccc(-c2cnc3c(c2)N(Cc2ccccc2)C(=O)CN3)cc1,> 200 °C
25,OC1CSC(Oc2ccc(-c3cc4ccccc4o3)nc2)C(O)C1O (configuration not stated),195 °C
26,CCOC(=O)N1CCC(=C2c3cc(C)ccc3CCn3ccnc32)CC1,156 °C

row,Structure (SMILES),melting point
1,Cc1cc(-c2ncn(Cc3ccc(F)cc3)n2)sc1C(=O)NCc1ccccc1,128 to 130 °C
2,CCC(Oc1ccc(F)cc1F)C(=O)OC1CC(O)C=C2C=CC(C)C(CCC3CC(O)CC(=O)O3)C21 (mixture of isomers),153 to 155 °C
3,COC(=O)c1ccc(CNC(C)=O)cc1,110 to 111 °C
4,Cc1c(-c2ccc(C[C@H](NC(=O)c3c(F)cccc3C(F)(F)F)C(=O)O)cc2)c(=O)n(C)c(=O)n1C,218 to 220 °C
5,CCC(=NO)c1ccncc1,141 to 144 °C
6,CC1(C)CC(=O)C2=C(C1)NC1=C(C(=O)CC(C)(C)C1)C2c1cccc(Oc2ccc(Cl)cc2)c1,238 to 239 °C
7,CCOC(=O)CCCCc1ccc2c(c1)C[C@@H](NC(=O)OC(C)(C)C)CC2,65 to 67 °C
8,COc1ccc(OCc2cccc(C(=O)O)c2)cc1Cc1cnc(N)nc1N,140 °C
9,CC(C)(C)OC(=O)NC1CCc2ccccc2C(F)C1=O (configuration not stated),127 to 129 °C
10,CSc1nc(C)cc(OC(F)F)n1,40 to 42 °C
11,CCCCCCc1ccc(-c2ncc(C#N)cn2)cc1,86.3 to 87.8 °C
12,Cn1cccc1-c1cc2nccnc2[nH]1,208 to 209 °C
13,CCOC(=O)c1ccc2ncccc2c1,66 to 67 °C
14,Cc1ccccc1C(Oc1cc(OCc2ccc3ocnc3c2)ccc1C#N)C(=O)O (racemic),189 to 191 °C
15,CCCc1nc(C(C)O)c(C(=O)O)n1Cc1ccc(-c2ccccc2-c2nnn[nH]2)cc1 (configuration not stated),198 to 201 °C
16,OC1CSC(Oc2cccc(-c3ccco3)c2)C(O)C1O (configuration not stated),138 °C
17,NC(=O)[C@@H]1COCN1C(=O)CCl,131 to 133 °C
18,N=C(NCC(F)(F)F)NC(N)=S,164 to 166 °C
19,CCCCCCCCC(SCCCCCC)C(=O)Nc1c([N+](=O)[O-])ccc2ncccc12 (configuration not stated),89.9 °C
20,NS(=O)(=O)Cc1cccc2c1C(=O)OC2,192 to 195 °C
21,CCOC(=O)/C(=N\OCc1c(Cl)cccc1Cl)c1csc(N)n1,171 to 172 °C
22,Cc1cc(-c2c3c(cc4ccc(O)cc24)-c2ccc(O)cc2CO3)ccc1F,185 to 188 °C
23,Cc1nc(N2CCN(Cc3ccccc3)C2=O)sc1C(N)=O,217 to 218 °C
24,Fc1ccc(Cn2c(NC3CCN(CCSc4nc5ccccc5o4)CC3)nc3ccccc32)cc1,174 °C

# Reference: a melting point compilation (Tetko et al.; mined from patent text by program, amines drawn as free bases though some values may be those of a salt)
